Converted amounts (≈) assume the structure as drawn.
Assays:
[1] = Lipophilicity, logD of compound at pH 7.4; type: physicochemical; conditions: buffer
[2] = Oral bioavailability in mouse at 1 mg/kg or 0.5 mg/kg, iv; type: ADME, organism-based; conditions: in vivo
[3] = Apparent permeability of compound across apical to basolateral in human Caco-2 cells at 10 uM; type: ADME, cell-based
[4] = Volume of distribution at steady state in mouse; type: ADME, organism-based; conditions: in vivo, read-out: Vdss
[5] = AUC (0 to t) in mouse plasma at 1 mg/kg, po; type: ADME, organism-based; design: dose 1 mg/kg, route po
[6] = Solubility of the compound in aqueous phosphate buffer at pH 7.4 incubated for 24 hrs; type: physicochemical
[7] = Oral bioavailability in mouse at 30 mg/kg; type: ADME, organism-based; conditions: in vivo
[8] = AUC (0 to t) in mouse plasma at 30 mg/kg, po; type: ADME, organism-based; design: dose 30 mg/kg, route po

`Nc1cc(NCCn2cccn2)c2ccc(-n3cccn3)cc2n1` gave a logD [1] of 1.7, a bioavailability [2] of 1.1% and a Papp A→B at 10 µM [3] of 2.3 ×10⁻⁶ cm/s. It also gave a Vd [4] of 3.1 L/kg.

In the case of `CC1(Nc2nc(N)nc3nc(-c4cc[nH]n4)ccc23)CC1`, the AUC(0-t) [5] is reported as 0.2 µM·h, the solubility at 24 h [6] is reported as 910 µM (≈ 256 µg/mL) and the bioavailability [7] is reported as 70%. The AUC(0-t) [8] was 7.5 µM·h, the bioavailability [2] was 56% and the Papp A→B at 10 µM [3] was 4.2 ×10⁻⁶ cm/s. The Vd [4] was 7.8 L/kg.

Work on `CCNc1nc(N)nc2nc(-c3cc[nH]n3)ccc12` yielded a logD [1] of 1.4.

In the case of `CC1(Nc2nc(N)nc3cc(-c4cc[nH]n4)ccc23)CC1`, the solubility at 24 h [6] is reported as over 1000 µM, the bioavailability [2] is reported as 25% and the Papp A→B at 10 µM [3] is reported as 9 ×10⁻⁶ cm/s. The Vd [4] was 4.7 L/kg.

Compound `CCN(Cc1nc2c(N)nc3cc(-c4cc[nH]n4)ccc3c2[nH]1)C(C)=O` [BMS-986299] has a logD [1] of 1.8, a Papp A→B at 10 µM [3] of 0.6 ×10⁻⁶ cm/s and a Vd [4] of 0.8 L/kg.

In the case of `CCNc1nc(N)nc2cc(-n3cccn3)ccc12`, the logD [1] is reported as 1.8.

`Nc1cc(NCCn2cccn2)c2ccccc2n1` showed a logD [1] of 0.5.

`Nc1nc(NC2CC2)c2ccc(-c3cc[nH]n3)nc2n1` gave a solubility at 24 h [6] of over 1000 µM, a bioavailability [2] of 7.5% and a Papp A→B at 10 µM [3] of 3.7 ×10⁻⁶ cm/s. The Vd [4] was 13 L/kg.

With `Nc1nc(NCCn2cccn2)c2ccc(-c3cc[nH]n3)nc2n1` the logD [1] was 1.4.

In the case of `CCNc1cc(N)nc2cc(-n3cccn3)ccc12`, the logD [1] is reported as 1.5.

With `c1cnn(CCNc2ccnc3cc(-n4cccn4)ccc23)c1` the logD [1] was 1.8.

In the case of `CCNc1nc(N)nc2nc(-c3ccc[nH]c3=O)ccc12`, the logD [1] is reported as 0.8.

`CCNc1nc(N)nc2cc(-n3cccn3)cnc12` showed a logD [1] of 2.1.

Compound `CCNc1nc(N)nc2nc(-n3cccn3)ccc12` has a logD [1] of 2.

In the case of `CCNc1nc(N)nc2cc(-c3cc[nH]n3)ccc12`, the logD [1] is reported as 1.8.
